# Data as given in patent US10308631B2, “Selective anti-cancer compounds” (NATIONAL UNIVERSITY OF SINGAPORE, priority 2015, dated 2019).
# Columns and labels:
# [1] = tested on: LC3 (LC3-II/LC3-I) in HeLa cells; test: Immunoblot analysis of LC3 in HeLa cells; format: cell-based, human; conditions: 0.625-10 μM, 6 h
# Method: FIG. 1 is a diagrammatic representation of an immunoblot analysis showing the dual inhibition of the autophagic process and mitotic progression by Compound 1 (a131). HeLa cells were treated with the indicated μM concentration of Compound 1 (a131) or chloroquine for 6 h. Cells were harvested and total lysates were analysed by detecting the mitotic marker phospho-histone H3 at serine 10 (pH3 (Ser10)) and the autophagosome marker LC3. The band intensity ratios of LC3-II/LC3-I as compared to DMSO control (lane 1, 0 μM chloroquine, and lane 7, 0 μM a131) are indicated (Ratio). Antibodies raised against β-actin were used as an internal loading control.
# The ability of Compound 1 to inhibit lysosome function was examined using immunoblotting. HeLa cervical cancer cells were cultured in Dulbecco's modified Eagle's medium (DMEM) supplemented with 10% Fetal Bovine Serum (FBS, Thermo Scientific). […]
# Defects in lysosome function and inhibition of autophagy can be measured by accumulation of LC3-phosphatidylethanolamine conjugated non-soluble form (LC3-II), which are converted from soluble LC3-I. Thus, antibodies raised against LC3 (Cell Signaling, Cat#4108) were used to determine lysosomal function and integrity. […] The inhibitory ability of Compound 1 was also quantitatively compared to CQ.
# [2] = tested on: caspase-3/7 activity in oncogene-transformed human fibroblast BJ cells; test: Caspase-3/7 Glo assay; format: cell-based; conditions: 2.5 and 5 μM, 48 h
# Method: FIGS. 5B, C provide a representation of an immunoblot analysis to examine the PARP or caspase-3 cleavage (B) and a histogram showing Caspase-3/7 activities, plotted as fold induction compared to DMSO-treated cells (C). BJ normal and transformed cells were treated with Compound 1 (a131) for 48 h. Cells were harvested and total lysates were analysed by detecting cleaved PARP or caspase-3 or caspase-3/7 activities as markers for apoptotic induction. […] Student's t-test was performed to determine the statistical significance (**=p<0.001, ***=p<0.0001, n.s.=no significance).
# Whether Compound 1 (a131)-induced cancer cell-lethality was mediated by apoptosis or non-apoptotic programmed cell death was determined. For this purpose, isogenic non-transformed and oncogene-transformed human fibroblast BJ cell lines were cultured in DMEM supplemented with 10% FBS. The cells were treated with Compound 1 (2.5 μM and 5 μM, DMSO). 48 h after treatment, total cell lysates were prepared for immunoblot analysis using antibodies against cleaved PARP and cleaved caspase-3, well-known markers for apoptosis. In addition, a fraction of total cell lysates was also subjected to Caspase-3/7 Glo (Promega) assay to measure the combined activity of caspase 3/7. This was determined using caspase-Glo 3/7 Assay Kit (Promega) and its activity was normalized to a number of viable cells as determined by MTT assay.
# [3] = tested on: cancer cell lines (panel of thirty); test: MTT growth inhibition, mean over cancer cell line panel; format: cell-based; conditions: Homo sapiens, 72 h
# Method: FIG. 7 is a graphical representation showing that Compound 1 (a131) induces selective cell growth inhibitory effects in a broad spectrum of human cancer cells. A panel of cancer and normal cell lines were treated with Compound 1 (a131) for 72 h and a mean G150 value (the concentration required to achieve 50% growth inhibition) was determined. A Student's t-test indicated a statistically significant difference at p<0.05 (p=0.017) between normal cells and cancer cells treated with Compound 1 (a131). […]
# The MTT assay was performed by adding thiazolyl blue tetrazolium bromide (MTT reagent, Invitrogen) at a concentration of 0.5 mg/mL to each cell culture and the resulting mixture incubated for 4 h at 37° C. […] The absorbance of each well at 540 nm and 660 nm was measured using a microplate reader (Benchmark plus, BIO-RAD). The optical density (OD) values were calculated by subtracting the absorbance at 660 nm from the absorbance at 540 nm. […]
structure (smiles),measurement,setting,value
"N#C/C(=C\c1cccc2cnccc12)c1c[nH]c2ccccc12 [Compound 1, (Z)-2-(1H-indol-3-yl)-3-(isoquinolin-5-yl)acrylonitrile]",levels of LC3-II,[1],markedly increased the levels of LC3-II
same,caspase-3/7 activity,[2],significant induction of caspase-3/7 activity
same,GI50,[3],1700 nM
